In patent publication US20130131008A1, “LIPOPHILIC MONOPHOSPHORYLATED DERIVATIVES AND NANOPARTICLES” (BOARD OF REGENTS, THE UNIVERSITY OF TEXAS SYSTEM, priority 2011, published 2013):

How the values were obtained:
[1] = molecular target: T1, dCDA partially purified from BxPC-3 cells (Homo sapiens, UniProt P32320); assay: dCDA activity (competition) assay, conversion of dCyd to dUrd; assay type: biochemical; conditions: 0.5 mM dCyd, 37° C., 15 min; inhibitor […] (FIG. 2B)
T1 construct: dCDA was partially purified from BxPC-3 cells as previously described; endogenous in cells; host or cells: BxPC-3 (ATCC CRL-1687), 40-55% ammonium sulfate fraction of the cell lysate
T1 sequence (P32320 whole entry): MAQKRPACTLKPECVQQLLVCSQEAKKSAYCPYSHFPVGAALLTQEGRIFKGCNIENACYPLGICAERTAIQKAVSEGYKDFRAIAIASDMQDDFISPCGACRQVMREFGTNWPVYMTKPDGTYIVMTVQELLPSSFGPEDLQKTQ
Protocol: Proton NMR spectra were recorded on a 300 MHz Varian UNITYplus™ or a 500 MHz Varian INOVA. Chemical shifts (δ) of ^1H NMR spectra were recorded in parts per million (ppm) relative to tetramethylsilane (TMS), which was the reference (δ=0 ppm). ^1H NMR data are reported according to the following order: chemical shift, integration (i.e., number of hydrogen atoms), multiplicity (s=singlet, d=doublet, t=triplet, q=quartet, m=multiplet, br=broad, brs=broad singlet), and coupling constant in Hertz (Hz). […] The concentrations of dCyd and dUrd in the dCDA assay were determined using an Agilent 1260 Infinity high performance liquid chromatography (HPLC) with an Agilent ZORBAX® Eclipse Plus C18 column (4.6×150 mm, 5 μm) attached to a ZORBAX® Eclipse Plus guard column (Agilent Technologies, Inc., Santa Clara, Calif.).
dCDA was partially purified from BxPC-3 cells as previously described. […] Protein concentration was measured using Bradford reagent from Sigma-Aldrich. […] The mixture was centrifuged at 10,000 g for 1 min, and the upper layer was analyzed using HPLC (detection wavelength, 260 nm; mobile phase, 10% methanol in water). The relevant peaks were quantified to determine the concentrations of dCyd and dUrd. […]

CCRF-CEM/dCK−/− cells = assay: In vitro cytotoxicity assay (MTT), 72 h, dCK deficient cells; assay type: cell-based, human
Text: Human leukemia cell line CCRF-CEM (CCL-119), human pancreatic cancer cell lines PANC-1 (CRL-1469), MIA PaCa-2 (CRL-1420), and BxPC-3 (CRL-1687), human breast adenocarcinoma cell line MCF-7 (HTB-22), and mouse lung cancer cell line TC-1 (CRL-2785) were from the American Type Culture Collection (Rockville, Md.). CCRF-CEM-AraC-8C cells (hENT1 deficient) and CCRF-CEM/dCK^−/− cells (dCK deficient) were kindly provided by Dr. Buddy Ullmann (Oregon Health & Science University, Portland, Oreg.) and Dr. Margaret Black (Washington State University, Pullman, Wash.), respectively. L1210 wt and L1210 10K were kindly supplied by Dr. Lars Petter Jordheim (Université Claude Bernard Lyon I, Lyon, France). TC-1-GR cells were previously developed in our lab. CCRF-CEM, CCRF-CEM-AraC-8C, CCRF-CEM/dCK^−/−, L1210 wt, L1210 10K, TC-1, and TC-1-GR cells were cultured in RPMI 1640 medium. MCF-7 and PANC-1 cells were cultured in Dulbecco's modified Eagle medium (DMEM), MIA PaCa-2 cells were cultured in DMEM medium with 2.5% horse serum. All media were supplemented with 10% fetal bovine serum (FBS), 100 U/mL of penicillin, and 100 μg/mL of streptomycin (all from Invitrogen, Carlsbad, Calif.).
Cells (5,000/well) were seeded in 96-well plates. After overnight incubation, they were treated with various concentrations of gemcitabine HCl, gemcitabine derivatives, or gemcitabine derivatives in nanoparticles at 37° C., 5% CO2. TC-1 and TC-1-GR cells were incubated for 48 h. CCRF-CEM, CCRF-CEM-AraC-8C, CCRF-CEM/dCK^−/−, L1210 wt, L1210 10K, and MCF-7 cells were incubated for 72 h, and MIA PaCa-2 and PANC-1 for 96 h. […] The number of viable cells after the incubation was determined using an MTT assay. […] Absorbance was measured using a BioTek Synergy™ HT Multi-Mode Microplate Reader (BioTek Instruments, Winooski, Vt.) at 570 nm and 630 nm. The fraction of affected (dead) cells (Fa) and the fraction of unaffected (live) cells (Fu) at every dose were calculated, and the Log(Fa/Fu) values were plotted against the Log(concentration of gemcitabine). […]

## Cl.Nc1ccn([C@@H]2O[C@H](CO)[C@@H](O)C2(F)F)c(=O)n1 [Gemcitabine HCl, 2′,2′-difluorodeoxycytidine HCl, reference compound]
[1]
  Inhibition of the deamination of dCyd (conversion to dUrd) by dCDA: competitively inhibited the conversion of dCyd to dUrd
CCRF-CEM/dCK−/− cells
  Ratio of IC50 in CCRF-CEM/dCK−/− to that in CCRF-CEM: 82,897
CCRF-CEM/dCK−/− cells; Homo sapiens, CCRF-CEM, MTT, 72 h incubation, dCK deficient
  IC50: 240 ± 29 µM
